# Numbered stars: 1 amine (or outer) side, 2 acyl side, 3 side chain; on linkers, the order of the positions; unused ones are H or OH. Bridge positions count the residues as written; N and C are the ends. Square brackets hold non-standard residues; d marks the D form. Peptide text beside a SMILES is read from it. I, II: the chains in the order shown. Actinocin(9to1) = Cc1c2oc3c(C)ccc(C(=O)[*:1])c3nc-2c(C(=O)[*:2])c(N)c1=O; NMeV = CN[C@H](C(=O)O)C(C)C; Sar = CNCC(=O)O
# What was measured:
# [1] = system: MEF Bax/Bak KO cells; assay: Apoptosis (Annexin V/PI flow cytometry) in MEF cells; format: cell-based; settings: all the concentrations tested
# Procedure: (§1) Cell Growth, Cell Death, and Apoptosis: Cell growth inhibition by (−)-gossypol was determined in a water-soluble tetrazolium (WST)-based assay, as described previously (Shangary et al., Proc. Natl. Acad. Sci. USA 105:3933 (2008)). Cell viability was determined by trypan blue due exclusion as described (Shangary et al., Proc. Natl. Acad. Sci. USA 105:3933 (2008)). Experiments were done in triplicate. To examine apoptosis, cells were stained with Annexin V and PI and analyzed by flow cytometery using an Annexin V-FITC staining kit (Roche Applied Science, Indianapolis, Ind.) according to manufacturer's instructions. Briefly, cells were treated and collected by centrifugation, washed with PBS once and then stained with annexinV-FITC and PI for 15 min at room temperature in the dark. Stained cells were analyzed in a FACS caliber flow cytometer. AnnexinV positive cells are considered as apoptotic cells.
# [2] = system: Noxa, Puma and Mcl-1 RNAs in 2LMP, PC-3, MDA-MB-436 and DU145 cells; assay: Taqman real-time PCR with actinomycin D cotreatment; format: cell-based, human; settings: cotreatment with (−)-gossypol 10 μm
# Procedure: Real-Time PCR: Total RNA was extracted by RNA miniprep kit (Sigma) from cells treated with or without of (−)-gossypol. cDNA was synthesized from 2 μg of RNA using cDNA reverse transcription kits (Applied Biosystems). Next, Taqman gene expression assays were performed using Noxa (Hs00560402_ml), Puma (Hs00248075_ml), Mcl-1 (Hs00172036_ml) gene specific primers/probe sets for real-time PCR in a ABI7900HT PCR machine. GAPDH (Hs99999905_ml) was used for normalization. Relative quantitation of mRNA was calculated by comparative cycle threshold (Ct) method.
# [3] = system: Bcl-2 family proteins in PC-3 cells; assay: Western blot of whole cell lysates; format: cell-based, human; settings: cotreatment with (−)-gossypol (FIG. 26)
# Procedure: (§2) Western blot assay: Proteins were harvested in RIPA buffer, then electrophoresed on 4-20% gradient SDS-PAGE gels (Invitrogen, Grand Island, N.Y.) and transferred to PVDF membranes. The membranes were blocked in 5% milk and then incubated with specific primary antibody, followed by secondary antibody. The signals were visualized with the chemiluminescent HRP antibody detection reagent (Deville Scientific, Metuchen, N.J.).
# [4] = system: Bcl-2 family proteins in 2LMP cells; assay: Western blot of whole cell lysates; format: cell-based, human; settings: cotreatment with (−)-gossypol (FIG. 26)
# Procedure: as §2
# [5] = system: 2LMP cells; assay: Cell death by trypan blue dye exclusion; format: cell-based, human; settings: c-Myc siRNA, 24 h
# Procedure: as §1
structure (smiles),measurement,setting,value
"COc1cc([C@@H]2c3cc4c(cc3[C@@H](O[C@@H]3O[C@@H]5CO[C@@H](C)O[C@H]5[C@H](O)[C@H]3O)[C@H]3COC(=O)[C@H]23)OCO4)cc(OC)c1O [VP-16, 4′-demethylepipodophyllotoxin 9-[4,6-0-(R)-ethylidene-(beta)-D-glucopyranoside], reference compound]",induction of cell death in the MEF Bax/Bak double knock-out,[1],blocked
"Cc1c2oc3c(C)ccc(C(=O)N[C@@H]4C(=O)N[C@H](C(C)C)C(=O)N5CCC[C@H]5C(=O)N(C)CC(=O)N(C)[C@@H](C(C)C)C(=O)O[C@@H]4C)c3nc-2c(C(=O)N[C@@H]2C(=O)N[C@H](C(C)C)C(=O)N3CCC[C@H]3C(=O)N(C)CC(=O)N(C)[C@@H](C(C)C)C(=O)O[C@@H]2C)c(N)c1=O [actinomycin D, reference compound] (I: T[dV]P[Sar][NMeV] / II: T[dV]P[Sar][NMeV]; ester I:1-I:C, II:1-II:C; linker I:N-II:N via Actinocin(9to1))","upregulation of Noxa, Puma and Mcl-1 RNAs by (−)-gossypol under cotreatment",[2],completely blocks
same,(−)-gossypol-upregulated Noxa and Puma proteins under cotreatment,[3],significantly blocked
same,(−)-gossypol-upregulated Noxa and Puma proteins under cotreatment,[4],significantly blocked
"CC(C)C[C@H](NC(=O)[C@H](Cc1ccccc1)NC(=O)c1cnccn1)B(O)O [bortezomib, reference compound]",cell death upon knock-down of c-Myc,[5],blocked cell death
